Read-outs that look alike come from different tables or passages of the source.
Assays:
hQC = hQC (Homo sapiens, UniProt Q16769); experiment: Inhibitor assay for glutaminyl cyclase activity (fluorometric, H-Gln-βNA / H-Gln-AMC); assay type: biochemical
In short: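 Coupled fluorometric assay at 30 °C with pyroglutamyl aminopeptidase, in Tris/HCl pH 8.0 with EDTA, substrate H-Gln-βNA (0.2 mM; ex/em 320/410 nm) or H-Gln-AMC (ex/em 380/460 nm), initiated by QC. Screening: 4 mM inhibitor, substrate at 1 KM; Ki from progress curves fitted to competitive inhibition.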

[1] = compound from preparative synthesis, purified, read-out: IC50 hQC
[2] = compound from preparative synthesis, purified

hQC, sequence (Q16769 29-361): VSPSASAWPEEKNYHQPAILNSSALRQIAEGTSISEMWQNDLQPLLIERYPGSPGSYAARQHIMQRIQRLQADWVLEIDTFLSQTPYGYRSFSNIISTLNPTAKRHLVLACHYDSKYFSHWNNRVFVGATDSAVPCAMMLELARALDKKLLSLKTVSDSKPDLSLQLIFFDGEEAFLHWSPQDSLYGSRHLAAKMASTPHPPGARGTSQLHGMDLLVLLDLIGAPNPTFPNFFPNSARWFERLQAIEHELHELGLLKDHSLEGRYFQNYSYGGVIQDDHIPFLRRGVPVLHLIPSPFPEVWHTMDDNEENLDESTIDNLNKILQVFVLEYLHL

Row | Structure (SMILES) | IC50 (hQC; [1]) | IC50 (hQC; read-out: IC50) | melting point | Ki (hQC; [2])
1 | O=C1C(O)=C(c2ccccc2)C(c2cc(F)cc(F)c2F)N1c1ccc2[nH]cnc2c1 (stereo not drawn) [Compound 445, 1-(1H-Benzoimidazol-5-yl)-3-hydroxy-4-phenyl-5-(2,3,5-trifluoro-phenyl)-1,5-dihydro-pyrrol-2-one] | 2.6 nM | 4 nM | 150 °C | 
2 | O=C(C1=C(O)C(=O)N(c2ccc3[nH]cnc3c2)C1c1ccc2nsnc2c1)C1CC1 (stereo not drawn) [Compound 287, 1-(1H-Benzoimidazol-5-yl)-5-benzo[c][1,2,5]thiadiazol-5-yl-4-cyclopropanecarbonyl-3-hydroxy-1,5-dihydro-pyrrol-2-one] | 0.7 nM | 4 nM | 270 °C (dec.) | 
3 | CC1=C(O)C(=O)N(c2ccc3[nH]cnc3c2)C1c1cc(F)c(F)cc1F (stereo not drawn) [Compound 469, 1-(1H-benzo[d]imidazol-5-yl)-5-(2,4,5-trifluorophenyl)-3-hydroxy-4-methyl-1H-pyrrol-2(5H)-one] |  | 233 nM | 184 °C | 53.6 nM
4 | CC1=C(O)C(=O)N(c2ccc3[nH]cnc3c2)C1c1cccc(Cl)c1Cl (stereo not drawn) [Compound 468, 1-(1H-benzo[d]imidazol-5-yl)-5-(2,3-dichlorophenyl)-3-hydroxy-4-methyl-1H-pyrrol-2(5H)-one] |  | 75 nM | 162 to 174 °C | 14.6 nM
5 | O=C(C1=C(O)C(=O)N(c2ccc3[nH]cnc3c2)C1c1ccc2cccc(O)c2n1)C1CC1 (stereo not drawn) [Compound 446, 1-(1H-Benzoimidazol-5-yl)-4-cyclopropanecarbonyl-3-hydroxy-5-(8-hydroxy-quinolin-2-yl)-1,5-dihydro-pyrrol-2-one] | 1.35 nM | 4 nM | 155 °C | 

Second part, the molecule after the results:

Row | IC50 (hQC; [1]) | IC50 (hQC; read-out: IC50) | melting point | Ki (hQC; [2]) | Structure (SMILES)
6 | 28.3 nM | 4 nM | 175 °C |  | CC(=O)C1=C(O)C(=O)N(c2ccc3[nH]cnc3c2)C1c1ccc2nonc2c1 (stereo not drawn) [Compound 403, 4-Acetyl-1-(1H-benzoimidazol-5-yl)-5-benzo[c][1,2,5]oxadiazol-5-yl-3-hydroxy-1,5-dihydro-pyrrol-2-one]
7 | 1.2 nM | 4 nM | 294 °C |  | CCCC(=O)C1=C(O)C(=O)N(c2ccc3[nH]cnc3c2)C1c1ccc(-c2ccccn2)cc1 (stereo not drawn) [Compound 387, 1-(1H-Benzoimidazol-5-yl)-4-butyryl-3-hydroxy-5-(4-pyridin-2-yl-phenyl)-1,5-dihydro-pyrrol-2-one]
8 | 30.3 nM | 4 nM | 135 °C |  | CC(=O)C1=C(O)C(=O)N(c2ccc3[nH]cnc3c2)C1c1cccc(F)c1F (stereo not drawn) [Compound 350, 4-Acetyl-1-(1H-benzoimidazol-5-yl)-5-(2,3-difluoro-phenyl)-3-hydroxy-1,5-dihydro-pyrrol-2-one]
9 | 246 nM | 40 nM | 266 °C |  | CCCC(=O)C1=C(O)C(=O)N(c2ccc3[nH]cnc3c2)C1c1ccc2nonc2c1 (stereo not drawn) [Compound 421, 1-(1H-Benzoimidazol-5-yl)-5-benzo[c][1,2,5]oxadiazol-5-yl-4-butyryl-3-hydroxy-1,5-dihydro-pyrrol-2-one]

From patent US8278345B2, “Inhibitors of glutaminyl cyclase” (Probiodrug AG, priority 2006, dated 2012)
